Experimental findings from US20150297741A1, “BIO-ORTHOGONAL DRUG ACTIVATION” (TAGWORKS PHARMACEUTICALS B.V., priority 2012, published 2015) are described below.

A short description of series [1]: Stability of a TCO compound under various conditions (HPLC-MS/PDA and/or GC-MS). The settings on record: for half-life at 2.3 mM: read-out: Stability of TCO: t1/2. The class given is physicochemical. The procedure:
The TCO stock solution (10 μL 25 mM; 2.5*10^−7 mol) was added to a solution of the specific condition (100 μL). The mixture was stirred at the specific condition for a certain amount of time, and then the fate of the TCO compound was monitored by HPLC-MS/PDA analysis and/or GC-MS analysis, and an estimation of its stability was made.
(§1) Conditions: A) in acetonitrile with 5 equivalents of pyridine per TCO at 20° C.
B) in acetonitrile with 5 equivalents of DIPEA per TCO at 20° C. C) in acetonitrile with 5 equivalents of piperidine per TCO at 20° C. D) in acetonitrile with 5 equivalents of n-butylamine per TCO at 20° C. E) in acetonitrile with 5 equivalents of 2-mercaptoethanol per TCO at 20° C. F) in tetrahydrofuran with 5 equivalents of triphenylphosphine per TCO at 20° C. G) in acetonitrile with 5 equivalents of DCC per TCO at 20° C. H) in acetonitrile with 5 equivalents of PyBOP per TCO at 20° C. […] J) in chloroform at 20° C. […] L) in chloroform with 1 v % of trifluoroacetic acid at 20° C. M) in chloroform with 10 v % of trifluoroacetic acid at 20° C. N) in chloroform with 33 v % of trifluoroacetic acid at 20° C. Z) in 25% acetonitrile in water at 20° C.

Series [2] can be described thus: Tetrazine-induced deprotection (TCO activation) under various conditions. The procedure:
In addition, the tetrazine-induced TCO activation was studied under the same conditions. […] In addition to amines, also hydroxy and carboxylic acids form stable conjugates with TCO and can subsequently be cleaved in a range of conditions.
The TCO stock solution (10 μL 25 mM in acetonitrile; 2.5*10^−7 mol) was added to a solution of the specific condition (100 μL). A solution of 3,6-dimethyl-1,2,4,5-tetrazine (8, 20 uL 25 mM in acetonitrile; 5.0*10^−7 mol) was added, and the mixture was stirred at the specific condition for a certain amount of time. The reaction was monitored by HPLC-MS/PDA analysis and/or GC-MS analysis, and the percentage of deprotection was estimated.
as §1
B) in acetonitrile with 5 equivalents of DIPEA per TCO at 20° C. C) in acetonitrile with 5 equivalents of piperidine per TCO at 20° C. D) in acetonitrile with 5 equivalents of n-butylamine per TCO at 20° C. E) in acetonitrile with 5 equivalents of 2-mercaptoethanol per TCO at 20° C. F) in tetrahydrofuran with 5 equivalents of triphenylphosphine per TCO at 20° C. G) in acetonitrile with 5 equivalents of DCC per TCO at 20° C. H) in acetonitrile with 5 equivalents of PyBOP per TCO at 20° C. I) in acetonitrile with 1 v % of formic acid at 20° C. J) in chloroform at 20° C. K) in chloroform with 1 v % of formic acid at 20° C. L) in chloroform with 1 v % of trifluoroacetic acid at 20° C. M) in chloroform with 10 v % of trifluoroacetic acid at 20° C. N) in chloroform with 33 v % of trifluoroacetic acid at 20° C. Z) in 25% acetonitrile in water at 20° C.

Series [3] in a line: Tetrazine-induced doxorubicin release from Axial-TCO-1-Doxorubicin in PBS/MeCN (LCMS). The procedure: PBS/MeCN (1 mL, 3/1), preheated at 37° C. and TCO-2-doxorubicin (10 μL of a 2.5 mM solution in DMSO, 1 eq.) were added to a preheated injection vial. Tetrazine (10 μL of a 25 mM solution in DMSO, 10 eq.) was added and the vial was vortexed. After incubation for 1 hour at 37° C., the vial was placed in LC-MS autosampler at 10° C. LC-MS analysis was performed using a 5% to 100% H2O/MeCN gradient over 11 minutes with a C18 reverse-phase column at 35° C. A control sample containing only TCO-2-doxorubicin (1 eq), as well as a sample containing only doxorubicin (1 eq.), was analyzed under the same conditions. All tetrazine containing samples were measured twice and the doxorubicin control sample was run after every three other samples during an overnight program. The peak area of released dox was divided by the peak area of TCO-2-doxorubicin or doxorubicin reference signals and multiplied by 100 to calculate the percentage of release. The calculated percentage of release was corrected when it was observed that the TCO-2-doxorubicin was not fully converted to inv-DA adduct(s). This was done by quantification of remaining dox-TCO, but full conversion was almost always observed. Peak areas (used for doxorubin quantification) were determined at A=470-500 nm where characteristic doxorubicin absorption takes place and peak integration was done by hand.
(§2) In a similar fashion as Example 3, the release of doxorubicin from TCO-1-doxorubucin as induced by tetrazines 1,8,9 in PBS/ACN and in serum was measured.

Series [4] in a line: Tetrazine-induced doxorubicin release from Axial-TCO-1-Doxorubicin in serum (HPLC-MS/PDA). Also noted: species or system mouse. The note with it: 37° C. As for the experimental part:
as §2
Serum experiments were conducted as follows:
TCO-1-doxorubucin (6.25×10^−8 mol) was dissolved in DMSO (0.050 mL), and PBS (0.475 mL) was added slowly in aliquots of 0.010 mL, followed by mouse serum (0.475 mL). […] Subsequently, cold MeCN (0.200 mL) was added, followed by centrifugation at 13400 rpm for 5 min. The supernatant was used for further analysis by HPLCMS/PDA analysis to determine the release of doxorubicin.

[5] abbreviates: 0.1M HCOOH buffer, pH = 2.0 for 2 day, 20° C.
Setting [6] is: 0.1M NH3 buffer, pH = 11 for 5 day, 20° C.
[7] abbreviates: 0.1M NH4OAc buffer, pH = 7.0 for 5 day, 20° C.
[8] abbreviates: 0.1M NH4OAc buffer, pH = 8.0 for 8 day, 20° C.
[9] abbreviates: 0.1M NH4OAc buffer, pH = 9.0 for 8 day, 20° C.
Setting [10] is: 0.1M NH4OAc buffer, pH = 10.0 for 8 day, 20° C.
The mark [11] stands for this setting: 10% MeCN in H2O at 70° C. for 5 day.
Where [12] appears, read: 10% MeCN in H2O for 5 day, 20° C.
Where [13] appears, read: with 5 eq. of DIPEA in MeCN for 16 h, 20° C.
The mark [14] stands for this setting: with 5 eq. of HCOOH in MeCN for 16 h, 20° C.
Where [15] appears, read: with 5 eq. of PyBOP in MeCN for 16 h, 20° C.
The mark [16] stands for this setting: with 5 eq. of pyridine in MeCN for 16 h, 20° C.

Each structure is given as a SMILES string. Read-outs that look alike come from different tables or passages of the source.

Take `COc1cc(COC(=O)NC2CC/C=C/CC[C@@H]2N)cc(OC)c1OC` (stereo partly shown): the “Stability of TCO” value in series [1] (setting [5]), in series [1] (setting [7]), in series [1] (setting [8]), in series [1] (setting [9]), in series [1] (setting [10]) and in series [1] (setting [12]) was “stable” throughout. Moreover, the “Stability of TCO: cyclization” value in series [1] (setting [6]) and in series [1] (setting [11]) was under 5% in each case. Also, the “Deprotection (%)” value in series [2] (setting [5]) was determined as 0%; in series [2] (setting [6]), 87%; in series [2] (setting [7]), 0%; in series [2] (setting [8]) it was 0%; in series [2] (setting [9]), 25%; in series [2] (setting [10]), 81%. Besides, the “Deprotection (%)” value in series [2] (setting [11]) came out at 50%; in series [2] (setting [12]), 0%.
As for `N[C@H]1CC/C=C/CCC1NC(=O)Oc1ccccc1` (stereo partly shown), the half-life at 2.3 mM amounted to 80 h in series [1] (0.1M NH4OAc buffer, pH = 7.0, 20° C.); 17 h in series [1] (0.1M NH4OAc buffer, pH = 8.0, 20° C.); 5.3 h in series [1] (0.1M NH4OAc buffer, pH = 9.0, 20° C.). For the same compound, the “Stability of TCO: cyclization” value was 6.7% in series [1] (setting [13]), 1.9% in series [1] (setting [14]), 5.9% in series [1] (setting [15]) and 2.6% in series [1] (setting [16]). The “Deprotection (%)” value in series [2] (setting [13]) turned out to be 98.8%; in series [2] (setting [14]) it was 33.9%; in series [2] (setting [15]), 24.4%; in series [2] (setting [16]), 71.7%.
For the compound `NC1/C=C/CCCCC1NC(=O)Oc1ccccc1` (stereo not shown), in series [1] (in PBS buffer, 20° C.), the half-life at 2.3 mM was found to be 65 h.
For `NC1CCCC/C=C/C1NC(=O)Oc1ccccc1` (stereo not shown), the half-life at 2.3 mM in series [1] (in PBS buffer, 20° C.) amounted to 29 h.
`COc1cccc2c1C(=O)c1c(O)c3c(c(O)c1C2=O)C[C@@](O)(C(=O)CO)C[C@@H]3O[C@H]1CC(NC(=O)O[C@H]2/C=C/CCCCC2)[C@H](O)C(C)O1` (stereo partly shown) [Axial-TCO-1-Doxorubicin]: the “Doxorubicin release (%) from Axial-TCO-1-Doxorubicin without tetrazine” value was 0% in series [3] (no tetrazine, 37° C., PBS (72 h), column PBS/MeCN (3/1)) and 0% in series [4] (no tetrazine, serum (24 h)).
On to `Cc1nnc(C)nn1` [tetrazine 8, 3,6-dimethyl-1,2,4,5-tetrazine], for which the “Doxorubicin release (%) from Axial-TCO-1-Doxorubicin” value in series [3] (10 equiv. tetrazine, 25% MeCN in PBS (PBS/MeCN 3/1), 37° C., LCMS at 4 h, n = 3) amounted to 79 ± 3%; in series [4] (10 equiv. tetrazine, 50% serum, LCMS at 4 h, n = 3), 75 ± 4%. Also, the “release of doxorubicin from TCO-1-doxorubucin, comparison of tetrazines 1, 8, 9” value in series [3] (PBS/ACN and serum) is recorded as “highest release”.
